Counter-ions that a name gives are not always drawn.
Experiments:
[1] = molecular target: Human α2δ-1 subunit of Cav2.2 calcium channel (Homo sapiens, UniProt P54289); assay: Binding assay to human α2δ-1 subunit of Cav2.2 calcium channel, [3H]-Gabapentin; details: human α2δ-1 enriched membranes, 15 nM [3H]-Gabapentin; read-out: Ki (nM) alpha2delta Hum
Procedure, shortened: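 Human α2δ-1-enriched membranes incubated with 15 nM [3H]-gabapentin in 10 mM Hepes-KOH pH 7.4, 60 min at 27 °C; nonspecific binding defined with 10 μM pregabalin. Bound ligand separated by filtration on PEI-presoaked GF/C filters, washed with ice-cold 50 mM Tris-HCl pH 7.4, counted by scintillation.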

[2] = molecular target: Human norepinephrine transporter (NET) (Homo sapiens, UniProt P23975); assay: Binding assay to human norepinephrine transporter (NET), [3H]-Nisoxetin; details: human NET enriched membranes, 5 nM [3H]-Nisoxetin; read-out: Ki (nM) NET Hum
Procedure, shortened: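 NET-enriched membranes (5 μg) incubated with 5 nM [3H]-nisoxetin in 50 mM Tris-HCl, 120 mM NaCl, 5 mM KCl, pH 7.4, for 60 min at 4 °C. Separation by filtration on PEI-soaked GF/C, then scintillation counting.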

Sequence of Human norepinephrine transporter (NET) (P23975 whole entry): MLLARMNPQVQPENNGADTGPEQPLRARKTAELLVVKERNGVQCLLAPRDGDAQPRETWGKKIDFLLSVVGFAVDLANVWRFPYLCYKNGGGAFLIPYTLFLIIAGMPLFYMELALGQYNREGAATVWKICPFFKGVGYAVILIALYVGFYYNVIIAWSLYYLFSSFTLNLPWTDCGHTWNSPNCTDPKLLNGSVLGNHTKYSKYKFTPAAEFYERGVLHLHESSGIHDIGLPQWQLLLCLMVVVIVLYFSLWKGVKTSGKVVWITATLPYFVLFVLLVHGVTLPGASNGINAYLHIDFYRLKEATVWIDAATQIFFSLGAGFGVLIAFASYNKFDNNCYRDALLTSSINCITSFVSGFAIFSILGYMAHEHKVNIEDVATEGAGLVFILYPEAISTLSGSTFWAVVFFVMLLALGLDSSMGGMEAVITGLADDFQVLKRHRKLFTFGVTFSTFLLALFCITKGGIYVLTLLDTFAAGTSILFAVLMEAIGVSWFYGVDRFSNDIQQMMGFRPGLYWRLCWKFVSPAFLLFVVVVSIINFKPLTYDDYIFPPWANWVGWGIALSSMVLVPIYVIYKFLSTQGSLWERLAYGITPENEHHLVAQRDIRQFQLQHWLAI
Sequence of Human α2δ-1 subunit of Cav2.2 calcium channel (P54289 25-1103): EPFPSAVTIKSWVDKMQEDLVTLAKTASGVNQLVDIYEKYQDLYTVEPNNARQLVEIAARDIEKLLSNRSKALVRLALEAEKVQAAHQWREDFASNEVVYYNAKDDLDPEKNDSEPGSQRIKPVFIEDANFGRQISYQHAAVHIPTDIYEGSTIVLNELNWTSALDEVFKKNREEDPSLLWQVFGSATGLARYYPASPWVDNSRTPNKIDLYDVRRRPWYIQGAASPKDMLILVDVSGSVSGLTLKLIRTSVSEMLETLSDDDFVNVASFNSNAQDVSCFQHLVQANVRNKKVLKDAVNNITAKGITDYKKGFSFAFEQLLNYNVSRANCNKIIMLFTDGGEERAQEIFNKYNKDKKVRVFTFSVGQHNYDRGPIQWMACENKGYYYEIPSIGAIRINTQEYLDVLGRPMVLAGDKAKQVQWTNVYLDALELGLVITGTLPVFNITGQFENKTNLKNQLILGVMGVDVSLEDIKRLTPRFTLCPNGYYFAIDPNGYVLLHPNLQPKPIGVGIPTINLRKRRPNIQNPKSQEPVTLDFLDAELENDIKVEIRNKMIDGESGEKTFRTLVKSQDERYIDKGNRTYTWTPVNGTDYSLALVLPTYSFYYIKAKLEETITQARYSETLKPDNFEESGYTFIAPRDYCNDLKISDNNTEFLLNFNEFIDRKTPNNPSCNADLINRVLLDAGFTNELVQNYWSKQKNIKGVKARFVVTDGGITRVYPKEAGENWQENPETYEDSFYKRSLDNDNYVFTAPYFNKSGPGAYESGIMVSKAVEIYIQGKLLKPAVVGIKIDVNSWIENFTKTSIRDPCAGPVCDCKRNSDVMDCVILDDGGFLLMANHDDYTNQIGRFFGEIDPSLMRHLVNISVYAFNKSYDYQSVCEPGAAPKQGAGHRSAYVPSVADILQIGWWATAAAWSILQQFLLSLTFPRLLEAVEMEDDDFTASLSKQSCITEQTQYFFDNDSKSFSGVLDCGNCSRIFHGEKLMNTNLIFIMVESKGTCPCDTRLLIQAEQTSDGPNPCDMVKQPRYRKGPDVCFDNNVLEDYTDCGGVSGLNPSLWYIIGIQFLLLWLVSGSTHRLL

CNCC[C@H](c1ccsc1)N1CC(C)(C)c2nc(C)c(F)cc21 [Example 90, (R)-3-(6-Fluoro-3,3,5-trimethyl-2,3-dihydro-1H-pyrrolo[3,2-b]pyridin-1-yl)-N-methyl-3-(thiophen-3-yl)propan-1-amine]
Ki [1]: < 100 nM | Ki [2]: > 1000 nM

CCNCC[C@H](c1ccsc1)N1CCc2ncc(F)cc21 [Example 91, (R)-N-ethyl-3-(6-fluoro-2,3-dihydro-1H-pyrrolo[3,2-b]pyridin-1-yl)-3-(thiophen-3-yl)propan-1-amine]
Ki [1]: 500 to 3000 nM | Ki [2]: > 1000 nM

CNCCC(c1cccs1)N1CC(C)(C)c2ccc(C#N)cc21 (centres unmarked) [Example 92, 3,3-Dimethyl-1-(3-(methylamino)-1-(thiophen-2-yl)propyl)indoline-6-carbonitrile]
Ki [1]: 100 to 500 nM | Ki [2]: > 1000 nM

CNCCC(c1cccs1)N1CC(C)(C)c2ccccc21 (centres unmarked) [Example 93, 3-(3,3-Dimethylindolin-1-yl)-N-methyl-3-(thiophen-2-yl)propan-1-amine]
Ki [1]: 500 to 3000 nM | Ki [2]: < 100 nM

CNCCC(c1cccs1)N1CCc2ccc(C#N)cc21 (centres unmarked) [Example 94, 1-(3-(Methylamino)-1-(thiophen-2-yl)propyl)indoline-6-carbonitrile]
Ki [1]: 100 to 500 nM | Ki [2]: > 1000 nM

CNCCC(c1cccs1)N1CCc2c(C#N)cccc21 (centres unmarked) [Example 95, 1-(3-(Methylamino)-1-(thiophen-2-yl)propyl)indoline-4-carbonitrile]
Ki [1]: 100 to 500 nM | Ki [2]: < 100 nM

CNCCC(c1cccs1)N1CCc2cc(C#N)ccc21 (centres unmarked) [Example 96, 1-(3-(Methylamino)-1-(thiophen-2-yl)propyl)indoline-5-carbonitrile]
Ki [1]: 500 to 3000 nM | Ki [2]: 500 to 1000 nM

CNCCC(c1cccs1)N1CC(C)(C)c2ncc(C#N)cc21 (centres unmarked) [Example 97, 3,3-Dimethyl-1-(3-(methylamino)-1-(thiophen-2-yl)propyl)-2,3-dihydro-1H-pyrrolo[3,2-b]pyridine-6-carbonitrile]
Ki [1]: < 100 nM | Ki [2]: > 1000 nM

CNCCC(c1cccs1)N1CC(C)(C)c2nc(OC)ccc21 (centres unmarked) [Example 99, 3-(5-Methoxy-3,3-dimethyl-2,3-dihydro-1H-pyrrolo[3,2-b]pyridin-1-yl)-N-methyl-3-(thiophen-2-yl)propan-1-amine]
Ki [1]: 100 to 500 nM | Ki [2]: 100 to 500 nM

CNCCC(c1cccs1)N1CC(C)(C)c2c(C#N)cccc21 (centres unmarked) [Example 100, 3,3-Dimethyl-1-(3-(methylamino)-1-(thiophen-2-yl)propyl)indoline-4-carbonitrile]
Ki [1]: < 100 nM | Ki [2]: > 1000 nM

CNCC[C@@H](c1ccsc1)N1CCc2ncc(C)cc21 [Example 102, (S)—N-methyl-3-(6-methyl-2,3-dihydro-1H-pyrrolo[3,2-b]pyridin-1-yl)-3-(thiophen-3-yl)propan-1-amine]
Ki [1]: 500 to 3000 nM | Ki [2]: > 1000 nM

CNCC[C@H](c1ccsc1)N1CCc2ncc(C)cc21 [Example 103, (R)—N-methyl-3-(6-methyl-2,3-dihydro-1H-pyrrolo[3,2-b]pyridin-1-yl)-3-(thiophen-3-yl)propan-1-amine]
Ki [1]: 100 to 500 nM | Ki [2]: > 1000 nM

CNCCC(c1ccsc1)N1CC(C)(C)c2nc(C#N)ccc21 (centres unmarked) [Example 104, 3,3-Dimethyl-1-(3-(methylamino)-1-(thiophen-3-yl)propyl)-2,3-dihydro-1H-pyrrolo[3,2-b]pyridine-5-carbonitrile Hydrochloride]
Ki [1]: 100 to 500 nM | Ki [2]: > 1000 nM

CNCC[C@@H](c1cccs1)N1CC(C)(C)c2ncc(F)cc21 [Example 105, (S)-3-(6-Fluoro-3,3-dimethyl-2,3-dihydro-1H-pyrrolo[3,2-b]pyridin-1-yl)-N-methyl-3-(thiophen-2-yl)propan-1-amine]
Ki [1]: 500 to 3000 nM | Ki [2]: > 1000 nM

CNCC[C@H](c1cccs1)N1CC(C)(C)c2ncc(F)cc21 [Example 106, (R)-3-(6-fluoro-3,3-dimethyl-2,3-dihydro-1H-pyrrolo[3,2-b]pyridin-1-yl)-N-methyl-3-(thiophen-2-yl)propan-1-amine]
Ki [1]: < 100 nM | Ki [2]: > 1000 nM

CNCC[C@@H](c1ccsc1)N1CC(C)(C)c2nc(C(F)(F)F)ccc21 [Example 107, (S)-3-(3,3-Dimethyl-5-(trifluoromethyl)-2,3-dihydro-1H-pyrrolo[3,2-b]pyridin-1-yl)-N-methyl-3-(thiophen-3-yl)propan-1-amine]
Ki [1]: 100 to 500 nM | Ki [2]: 100 to 500 nM

CNCC[C@H](c1ccsc1)N1CC(C)(C)c2nc(C(F)(F)F)ccc21 [Example 108, (R)-3-(3,3-dimethyl-5-(trifluoromethyl)-2,3-dihydro-1H-pyrrolo[3,2-b]pyridin-1-yl)-N-methyl-3-(thiophen-3-yl)propan-1-amine]
Ki [1]: 100 to 500 nM | Ki [2]: > 1000 nM

CNCC[C@@H](c1cccs1)N1CC(C)(C)c2ncc(Cl)cc21 [Example 109, (S)-3-(6-Chloro-3,3-dimethyl-2,3-dihydro-1H-pyrrolo[3,2-b]pyridin-1-yl)-N-methyl-3-(thiophen-2-yl)propan-1-amine]
Ki [1]: ≥ 3000 nM | Ki [2]: > 1000 nM

CNCC[C@H](c1cccs1)N1CC(C)(C)c2ncc(Cl)cc21 [Example 110, (R)-3-(6-chloro-3,3-dimethyl-2,3-dihydro-1H-pyrrolo[3,2-b]pyridin-1-yl)-N-methyl-3-(thiophen-2-yl)propan-1-amine]
Ki [1]: 100 to 500 nM | Ki [2]: > 1000 nM

CNCC[C@@H](c1cccs1)N1CCc2c(C#N)cccc21 [Example 111, (S)-1-(3-(Methylamino)-1-(thiophen-2-yl)propyl)indoline-4-carbonitrile]
Ki [1]: 500 to 3000 nM | Ki [2]: < 100 nM

CNCC[C@@H](c1cccs1)N1CCc2c(C#N)cccc21 [Example 112, (S)-1-(3-(methylamino)-1-(thiophen-2-yl)propyl)indoline-4-carbonitrile]
Ki [1]: 100 to 500 nM | Ki [2]: > 1000 nM

CNCC[C@@H](c1cccs1)N1CC(C)(C)c2nc(OC)ccc21 [Example 113, (S)-3-(5-Methoxy-3,3-dimethyl-2,3-dihydro-1H-pyrrolo[3,2-b]pyridin-1-yl)-N-methyl-3-(thiophen-2-yl)propan-1-amine]
Ki [1]: 500 to 3000 nM | Ki [2]: 500 to 1000 nM

CNCC[C@H](c1cccs1)N1CC(C)(C)c2nc(OC)ccc21 [Example 114, (R)-3-(5-methoxy-3,3-dimethyl-2,3-dihydro-1H-pyrrolo[3,2-b]pyridin-1-yl)-N-methyl-3-(thiophen-2-yl)propan-1-amine]
Ki [1]: 100 to 500 nM | Ki [2]: > 1000 nM

CNCC[C@@H](c1cccs1)N1c2ccccc2C[C@H]1C [Example 117, (S)—N-methyl-3-((R)-2-methylindolin-1-yl)-3-(thiophen-2-yl)propan-1-amine]
Ki [1]: ≥ 3000 nM | Ki [2]: < 100 nM

CNCC[C@H](c1cccs1)N1c2ccccc2C[C@@H]1C [Example 118, (R)—N-methyl-3-((S)-2-methylindolin-1-yl)-3-(thiophen-2-yl)propan-1-amine]
Ki [1]: ≥ 3000 nM | Ki [2]: > 1000 nM
